Literature values in patent US20210299075A1 (priority 2020, published 2021).

Columns and labels:
[1] = frequent application
[2] = Hendley et al.
[3] = tested on: herpes simplex virus, rhabdovirus, and other enveloped viruses; details: Poli et al.
adenovirus = details: Poli et al.; the only naked virus tested

Compound	irritation of the skin [1]	antiviral activity [2]	antiviral activity against enveloped viruses [3]	antiviral activity against adenovirus (adenovirus)
II [iodine]	too irritating to the skin	all except iodine performed poorly		
O=C(O)CCC(=O)O [succinic acid]			effective	not effective
benzalkonium chloride [benzalkonium chloride (BAK)]		performed poorly		
CC(=O)C(=O)O [pyruvic acid]			effective	not effective
O=C(O)CC(O)C(=O)O (stereo not drawn) [malic acid]			effective	not effective
O=C(O)CC(O)(CC(=O)O)C(=O)O [citric acid]			effective	not effective
CCO [ethyl alcohol]		performed poorly		
